Reference: patent US6387605B1, “Co-developers for black-and-white photothermographic elements” (Eastman Kodak Company, priority 1999, dated 2002)

Test: Solubility of co-developers in coating solvents (Example 5)
Type: physicochemical
Description: Solubility of Co-developers: In order for the co-developer to perform effectively, some quantity of the co-developer must be soluble in the coating solvent for the emulsion layer or topcoat layer. 2-Butanone MEK) and methanol are typical solvents for these layers. Solubility will vary depending on the structure of the co-developer, the composition of the layer containing the co-developer, and the solvents employed.
The photothermographic elements of this invention typically require from 10 mg to 100 mg of co-developer in 40 g of photothermographic emulsion in 25 g 2-butanone in order to achieve high contrast. The photothermographic emulsions are held at 50° F. (10° C.). As this is below room temperature, the solubility is below that of the co-developer at room temperature.
The solubility of co-developer CI-03 in 25 g of 2-butanone (MEK) and in 25 g of methanol was determined.

## O=C1NC(=O)C(=CO)C(=O)N1 [CI-03, 5-(Hydroxymethylone)-2,4,5(1H3H,5H)-pyrimdine-trione]
2.5 mg in 25 g 2-butanone, room temperature
  Solubility in MEK: Soluble at room temperature.
5.0 mg in 25 g 2-butanone, 90° F. (32° C.)
  Solubility in MEK: Soluble at 90° F. (32° C.).
5.0 mg in 25 g 2-butanone, room temperature
  Solubility in MEK: Insoluble at room temperature.
5 mg in 25 g methanol, room temperature
  Solubility in MeOH: Soluble at room temperature.
12.5 mg in 25 g 2-butanone, 90° F. (32° C.)
  Solubility in MEK: Insoluble at 90° F. (32° C.).
12.5 mg in 25 g methanol, 90° F. (32° C.)
  Solubility in MeOH: Soluble at 90° F. (32° C.).
12.5 mg in 25 g methanol, room temperature
  Solubility in MeOH: Insoluble at room temperature.
25 mg in 25 g 2-butanone, 90° F. (32° C.)
  Solubility in MEK: Insoluble at 90° F. (32° C.).
25 mg in 25 g methanol, 90° F. (32° C.)
  Solubility in MeOH: Soluble at 90° F. (32° C.).
25 mg in 25 g methanol, room temperature
  Solubility in MeOH: Insoluble at room temperature.
Example 1, sample 1-28
  Solubility in organic solvents: Compound CI-03 was insoluble in organic solvents.
